Experimental data reported in EPA's ToxValDB 9.5 (doi:10.2903/j.efsa.2007.117r).
In brackets after ≈: the same amount, converted by molar mass.

Key:
Aphidius rhopalosiphi = conditions: chronic/long-term; mortality
Apis mellifera = conditions: acute; duration: 48 hours; oral; unspecified; mortality
Bibionidae = conditions: chronic/long-term; duration: 24 days; reproduction
Bird = conditions: for LD50: oral, mortality
Canidae = conditions: subchronic; duration: 90 days; oral; Dog Other
Daphnia magna = conditions: chronic/long-term; duration: 21 days; reproduction
Oryctolagus sp. = conditions: reproduction developmental; reproduction
Tagia sp. = conditions: acute; duration: 14 days; mortality

## NC1=C(Cl)C(=O)c2ccccc2C1=O [2-Amino-3-chloro-1,4-naphthoquinone]
Aphidius rhopalosiphi
  LEL: 3810 g/ha
Apis mellifera
  LD50: > 28 µg/piece
Bibionidae
  NOEC: 0.063 mg/L
Bird; acute, unspecified
  LD50: > 2000 mg/kg-day
Bird; chronic/long-term
  NOAEL: 36.2 mg/kg-day
Bird; short-term, feed
  LD50: 394 mg/kg-day
Canidae
  NOAEL: 3 mg/kg-day
Daphnia magna
  NOEC: 0.0021 mg/L
Oncorhynchus mykiss; acute, duration: 96 hours, mortality
  LC50: 0.063 mg/L (≈ 0.303 µM)
Oncorhynchus mykiss; chronic/long-term, duration: 21 days, behavior
  NOEC: 0.02 mg/L
Oryctolagus sp.
  NOAEL: 17.5 mg/kg-day
Rattus norvegicus; acute, oral, mortality
  LD50: 500 mg/kg-day
Rattus norvegicus; chronic, duration: 2 years, organ weight
  NOAEL: 0.21 mg/kg-day
Rattus norvegicus; reproduction developmental, body weight
  NOAEL: 5 mg/kg-day
Tagia sp.
  LC50: 125 mg/kg
